Measurements: PMC9727700 (Redox Biology, 2022)

Assays:
SH-SY5Y cells [1] = test: Intracellular 4-HNE levels in fatty acid-treated SH-SY5Y cells; assay type: cell-based, human; details: 50 μM
SH-SY5Y cells [2] = test: Rotenone-treated SH-SY5Y cells: mitochondrial membrane potential; assay type: cell-based, human; details: rotenone 1 μM; HY08 0.3 μM; NAC 1 μM

`CCCCC/C=C\C/C=C\C/C=C\C/C=C\CCCC(=O)O` [AA, arachidonic acid] was tested, and the “intracellular 4-HNE production” value (SH-SY5Y cells [1]) was “significantly enhanced”.
With `CC(=O)N[C@@H](CS)C(=O)O` [NAC, N-Acetyl cysteine] the “rotenone-induced mitochondrial membrane potential loss and cell death” value (SH-SY5Y cells [2]) was “exerted inhibitory effects”.
